In US7494980B2, “Antimicrobial peptide and methods of use thereof” (The United States of America as represented by the …, priority 2003, dated 2009):
Ends that are not written are not given here.

Legend:
[1] = test system: L. salivarius ATCC 29602; experiment: In vitro susceptibility (broth microdilution MIC, MBC by spiral-plating); format: cell-based, Lactobacillus salivarius; conditions: 24-48 h
Source text: (§1) Strains used in Examples 3-6 included ATCC and laboratory strains of different oral bacteria. These included: Actinomyces naeslundii strain T14V-J1, Actinomyces israelii ATCC 10049, Streptococcus mutans strains LT 11 and ATCC 25175, Streptococcus sobrinus ATCC 33478, Streptococcus gordonii strains DL1 and ATCC 51656, Streptococcus sanguis strains SK36 and ATCC 10556, Streptococcus salivarius ATCC 9222, Streptococcus oralis strains 34 and ATCC 35037, Lactobacillus salivarius ATCC 29602, Lactobacillus acidophilus ATCC 4357, and Actinobacillus actinomycetemcomitans ATCC 43718. S. mutans strain LT 11 was kindly provided by Lin Tao, University of Illinois at Chicago, Ill. S. gordonii DLI, S. sanguis SK36, and S. oralis 34 were provided by John Cisar, National Institute of Dental and Craniofacial Research, NIH, Bethesda, Md. […]
(§2) MICs were determined as described by Fuchs et al. (1998) with a slight modification. […] The MIC was defined as the lowest concentration of the peptide that prevented visible turbidity, as measured at 600 nm by using an ELISA reader (Titertek Multiskan MCC/340). […] Minimum bactericidal concentrations (MBCs) were determined by spiral-plating (Spiral Plater Autoplate 4000; Spiral Biotech) 50 μl from each clear well (≧MIC) onto BAP.

[2] = test system: S. sanguis SK36; experiment: as above; format: cell-based, Streptococcus sanguis; conditions: 24-48 h
Source text: (§3) Strains used in Examples 3-6 included ATCC and laboratory strains of different oral bacteria. These included: Actinomyces naeslundii strain T14V-J1, Actinomyces israelii ATCC 10049, Streptococcus mutans strains LT 11 and ATCC 25175, Streptococcus sobrinus ATCC 33478, Streptococcus gordonii strains DL1 and ATCC 51656, Streptococcus sanguis strains SK36 and ATCC 10556, Streptococcus salivarius ATCC 9222, Streptococcus oralis strains 34 and ATCC 35037, Lactobacillus salivarius ATCC 29602, Lactobacillus acidophilus ATCC 4357, and Actinobacillus actinomycetemcomitans ATCC 43718. S. mutans strain LT 11 was kindly provided by Lin Tao, University of Illinois at Chicago, Ill. S. gordonii DLI, S. sanguis SK36, and S. oralis 34 were provided by John Cisar, National Institute of Dental and Craniofacial Research, NIH, Bethesda, Md.
(§4) Todd-Hewitt broth (THB), brain heart infusion (BHI) broth, Todd-Hewitt agar (THA), trypticase soy agar (TSA), lactobacilli MRS (MRS) broth, Actinomyces broth and Mueller-Hinton broth (MHB) were purchased from Becton Dickinson. Blood agar plates (BAP) were prepared by supplementing TSA with 5% sheep blood (PML Microbiologicals). All cultures, except for Actinobacillus actinomycetemcomitans, S. mitis and Actinomyces israelii, were grown at 37° C. in room air. Actinobacillus actinomycetemcomitans cultures were grown on BAP or in MHB supplemented with 15 μg haemin ml^−1 (Sigma), 15 μg β-nicotinamide adenine dinucleotide (NAD) ml^−1 (Sigma) and 5% yeast extract (Becton Dickinson) at 37° C. in 5% CO2. S. mitis was grown on BAP or in BHI broth at 37° C. in 5% CO2. Actinomyces israeilli was grown anaerobically in an anaerobic chamber (Coy Laboratory Products) in a 5% CO2/10% H2/85% N2 atmosphere.
(§5) MICs were determined as described by Fuchs et al. (1998) with a slight modification. Procedures were based on the National Committee for Clinical Laboratory Standards broth microdilution method. MHB was used as the main assay medium for most of the tested organisms. Freshly grown cultures at exponential phase were used as the inoculum. Bacteria were centrifuged at 4000 r.p.m. for 15 min at 4° C., suspended in 2× concentrated medium and adjusted to 4×106 c.f.u ml−1 in 2× concentrated medium. Aqueous peptide solution (100 μl) was added to each well of a 96-well, flat-bottomed plate (Becton Dickinson). […] The MIC was defined as the lowest concentration of the peptide that prevented visible turbidity, as measured at 600 nm by using an ELISA reader (Titertek Multiskan MCC/340). […] Minimum bactericidal concentrations (MBCs) were determined by spiral-plating (Spiral Plater Autoplate 4000; Spiral Biotech) 50 μl from each clear well (≧MIC) onto BAP.

[3] = test system: S. sanguis ATCC 10556; experiment: as above; format: cell-based, Streptococcus sanguis; conditions: 24-48 h
Source text: as §3, §4, §5

[4] = test system: S. oralis ATCC 35037; experiment: as above; format: cell-based, Streptococcus oralis; conditions: 24-48 h
Source text: as §1, §2

[5] = test system: L. salivarius ATCC 29602; experiment: Bactericidal assay (log reduction in viable counts); format: cell-based, Lactobacillus salivarius
Source text: as §3
(§6) The bactericidal assay was performed according to procedures described by Miyasaki et al. (1997, 1998) with a slight modification. […] Susceptibility was determined by examining the log reduction in viability counts of organisms that had been exposed to different concentrations of KSL. […] Bactericidal activity was also expressed as the 99% effective dose (ED99), which is the concentration of the antimicrobial decapeptide at which there is a 2-log or more reduction in c.f.u. […]
(§7) In addition to the determinations of MICs and MBCs of KSL, log reductions in viable counts of selected oral bacteria caused by KSL were also determined. […] With the exception of Actinobacillus actinomycetemcomitans, for which the assays were performed in 0.01% BHI, bactericidal action of KSL was determined in isotonic HBSS after incubation with the targeted bacteria for 1 h at 37° C. KSL at 6.25 μg ml^−1, which was determined to be the 99% effective dose (ED99), caused more than 2 log reductions in viable counts of the organisms tested, which included L. salivarius ATCC 29602 (FIG. 3a), S. mutans ATCC 25175^T (FIG. 3b), S. gordonii ATCC 51656 (FIG. 3c), and Actinobacillus actinomycetemcomitans ATCC 43718 (FIG. 3d).

[6] = test system: saliva bacteria (facultative anaerobic oral bacteria collected from saliva); experiment: In vitro killing of saliva bacteria; format: cell-based; conditions: 200 μg KSL ml^−1, 30 min at 37° C., vs PBS
Description: The killing assay of saliva bacteria was done according to procedures established by Helmerhorst et al. (1999). Unstimulated saliva was collected from four healthy individuals who had refrained from eating for at least 2 hours. The study was approved by the Institutional Review Board of the Walter Reed Army Institute of Research and informed consent and sample donation consent were obtained from all volunteers. Pooled saliva was initially spun at 500 r.p.m. in an Eppendorf centrifuge (model 5810R) for 10 min at 4° C. to remove epithelial cells and mucus. Saliva bacteria were collected by spinning the supernatant at 4000 r.p.m. for 15 min at 4° C. The pellet was washed three times in 10 mM potassium phosphate buffer (PPB) and suspended in the same buffer to give approximately 1.0×10^7 cells ml^−1. Bacterial suspension (250 μl) was mixed with 250 μl peptide to obtain final peptide concentrations of 12.5, 25, 50, 100 and 200 μg ml^−1. After incubation of the mixture at 37° C. for 30 min, cells were spun down to remove KSL, washed once in PBS having a pH of 7.4 and suspended in PBS before spiral-plating 50 μl of the treated and untreated cells in different dilutions on BAP. The negative control was exposed to buffer only. Saliva bacteria exposed to 0.12% aqueous chlorhexidine served as positive controls. […]

[7] = test system: S salivarius ATCC 9222; experiment: In vitro susceptibility (broth microdilution MIC, MBC by spiral-plating); format: cell-based, Streptococcus salivarius; conditions: 24-48 h
Source text: as §1, §2

[8] = test system: S. gordonii ATCC 51656; experiment: Bactericidal assay (log reduction in viable counts); format: cell-based, Streptococcus gordonii
Source text: as §3, §6, §7

[9] = test system: Actinobacillus actinomycetemcomitans ATCC 43718; experiment: as above; format: cell-based
Source text: as §3, §6, §7

[10] = test system: S. mutans ATCC 25175; experiment: In vitro susceptibility (broth microdilution MIC, MBC by spiral-plating); format: cell-based, Streptococcus mutans
Source text: as §3
as §4, with “Actinomyces israeilli was grown anaerobically in an anaerobic chamber (Coy Laboratory Products) in a 5% CO2/10% H2/85% N2 atmosphere.” left out
as §2

[11] = MHB, 4 × 10^6 cells ml^−1, 37° C.

KKVVFKVKFK-NH2 [KSL, lys-lys-val-val-phe-lys-val-lys-phe-lys]
MIC ([1]; 10% MRS, 4 × 10^6 cells ml^−1, 37° C.): 3.13 µg/mL | MBC ([1]; clear MIC wells plated on BAP): 12.5 µg/mL | MIC [2, 11]: 25 µg/mL | MBC ([2]; clear MIC wells plated on BAP): 50 µg/mL | MIC [3, 11]: 25 µg/mL | MBC ([3]; clear MIC wells plated on BAP): 100 µg/mL | MIC [4, 11]: 100 µg/mL | MBC ([4]; clear MIC wells plated on BAP): 200 µg/mL | log reduction in viable counts ([5]; 6.25 μg ml^−1, HBSS, FIG. 3a): more than 2 log | reduction in viability ([5]; concentrations of <10 μg ml^−1): > 3 logs | ED99 (99% effective dose) ([5]; isotonic HBSS, 1 h at 37° C.): 6.25 µg/mL | log reduction in facultative anaerobes in saliva [6]: 1.05 log | MIC [7, 11]: 50 µg/mL | MBC ([7]; clear MIC wells plated on BAP): 100 µg/mL | log reduction in viable counts ([8]; 6.25 μg ml^−1, HBSS, FIG. 3c): more than 2 log | reduction in viability ([8]; concentrations of <10 μg ml^−1): > 3 logs | ED99 (99% effective dose) ([8]; isotonic HBSS, 1 h at 37° C.): 6.25 µg/mL | log reduction in viable counts ([9]; 6.25 μg ml^−1, 0.01% BHI, FIG. 3d): more than 2 log | ED99 (99% effective dose) ([9]; 0.01% BHI, 1 h at 37° C.): 6.25 µg/mL | reduction in viability ([9]; concentrations of <10 μg ml^−1): > 3 logs | concentration inhibiting growth effectively [10]: < 25 µg/mL | MIC ([10]; MHB, 4 × 10^6 cells ml^−1, 37° C., 24-48 h): 6.25 µg/mL | MBC ([10]; clear MIC wells plated on BAP, 24-48 h): 12.5 µg/mL
